Measured values from US8784849B2, “Hydroxyapatite-targeting poly(ethylene glycol) and related polymers” (Nektar Therapeutics, priority 2000, dated 2014).
Each block holds one compound with its values, some of them ahead of it.

How the values were obtained:
[1] = in vivo; cited from earlier work
[2] = Binding of PEG-AHPDP derivatives to hydroxyapatite in vitro; details: 37° C., 5 mM sodium phosphate buffer pH 7.2
Protocol: Hydroxyapatite (Fast Flow, Fluka, 12 mg) was equilibrated in 1 ml of 5 mM sodium phosphate buffer, pH 7.2 for 24 hours at 37° C.

[3] = Excretion study of 125I-labelled PEG derivatives in mice; assay type: in vivo, Male ICR mice; details: for average % [125I] captured (urine and feces, % of total counts injected): 2 μCi i.v. tail vein, n=6; for radiolabeled compound excreted in the urine: 8 hr collection, share of captured radiolabel
Protocol: PEG(2,000)-α-L-tyrosine-ω-AHPDP and mPEG(2,000)-α-L-tyrosine were iodinated using a standard chloramine-T procedure (Bolton, Methods Enzymol. 124: 18-29, 1986). In brief, a 15 μL aliquot of PEG(2,000)-α-L-tyrosine-ω-AHPDP or mPEG(2,000)-α-L-tyrosine (2 μg/μL total weight) was mixed with 50 μL of […] phosphate buffer. To this was added 1 mCi of NaI^125 and 10 μL of Chloramine-T (1 μg/μL). The mixture was finger vortexed for 30s followed by addition of 100 μL-Cys (2 µg/µL), followed by another 30s of finger vortexing. The purification was carried out by reverse-phase chromatography. The samples were eluted at 37° C. using a curvilinear gradient of 0.1% trifluroacetic acid (TFA) in acetonitrile (19-63%) versus 0.1% aqueous TFA over 30 min at 1.5 ml.min^−1.
Male ICR mice (20-25 g) were administered either 2 μCi of PEG(2,000)-α-L-tyrosine-ω-AHPDP or mPEG(2,000)-α-L-tyrosine via tail vein injection (100 μL; i.v.). The mice were placed into metabolism cages and urine and feces were collected at the following time points (1, 2, 3, 4, 6, & 8 hr post-injection) (n=6).

[4] = Binding of PEG(2,000)-α-AHPDP-ω-protein to hydroxyapatite in vitro; details: 37° C., 5 mM sodium phosphate buffer pH 7.2; for percentage adsorbed to hydroxyapatite: by 1^1/2 hour incubation; for adsorption to hydroxyapatite (in words): 1^1/2 hour incubation
Protocol: Hydroxyapatite (Fast Flow, Fluka, 120 mg) was equilibrated in 1 ml of 5 mM sodium phosphate buffer, pH 7.2 for 24 hours at 37° C. Native lysozyme or the PEG-lysozyme conjugate was mixed with the hydroxyapatite suspension in a 1:1 volume ratio and stirred at 37° C. Samples were taken from the mixture at various time points and analyzed for the percentage of unbound protein or PEG-protein conjugate by gel permeation chromatography. […] All samples had similar protein concentrations.

Compound: CC(O)(P(=O)(O)O)P(=O)(O)O [Etidronate]
- half-life in bone [1]: greater than 90 days

Compound: PEG(2,000)-α-tyrosine-ω-AHPDP [PEG(2,000)-α-L-tyrosine-ω-AHPDP]
- adsorption half-life on hydroxyapatite [2]: 19 min
- average % [125I] captured (urine and feces, % of total counts injected) ([3]; 8 hour time course): 7.7%
- [125I] retained in the body versus mPEG(2,000)-α-L-tyrosine (in words) ([3]; i.v., 8-hour period): significantly greater percentage
- fold lower percentage of [125I] captured than mPEG(2,000)-α-L-tyrosine ([3]; i.v., 8 hour time course): 5 fold
- radiolabeled compound excreted in the urine ([3]; i.v.): ~95%

Compound: NCCC(O)(P(=O)(O)O)P(=O)(O)O [AHPDP, 3-amino-1-hydroxypropane-1,1-diphosphonic acid, reference compound]
- adsorption half-life on hydroxyapatite [2]: around 1 min

Compound: PEG(2,000)-α-methoxy-ω-L-tyrosine
- adsorption to hydroxyapatite (in words) ([2]; 0.1-1.0 mg/ml): did not show any adsorption
- average % [125I] captured (urine and feces, % of total counts injected) ([3]; 8 hour time course): 47.5%
- radiolabeled compound excreted in the urine ([3]; i.v.): greater than 95%

Now from value to compound:

- percentage adsorbed to hydroxyapatite [4]: 100%
Compound: 2-PEGmer: PEG-lysozyme multimer with two PEG(2,000)-α-AHPDP chains, separated by size exclusion [Example 2-PEGmer]

- adsorption to hydroxyapatite (in words) [4]: did not adsorb
Compound: Native lysozyme: chicken egg white lysozyme, MW=14,300 Da, used as a model protein [reference compound]

- percentage adsorbed to hydroxyapatite [4]: 100%
Compound: 3-PEGmer: PEG-lysozyme multimer with three PEG(2,000)-α-AHPDP chains, separated by size exclusion [Example 3-PEGmer]

- adsorption to hydroxyapatite (in words) [4]: limited adsorption
Compound: 1-PEGmer: PEG-lysozyme multimer with one PEG(2,000)-α-AHPDP chain, separated by size exclusion [Example 1-PEGmer]

- adsorption half-life on hydroxyapatite [2]: 45 min
Compound: PEG(5,000)-α-amine-ω-AHPDP
